Consider one substance from patent US7138388B2, “Methods to treat autoimmune and inflammatory conditions” (Celmed Oncology (USA), Inc., priority 2001, dated 2006).

For the assay, the system named is animals with collagen-induced arthritis. Nature of the assay: Collagen-induced arthritis in mice: treatment after disease onset, assessed by clinical score and paw swelling. It counts as in vivo, male DBA/1 mice. The protocol:
Arthritis was induced in male DBA/1 mice (8–10 weeks old) by intradermal injection of bovine type II collagen, purified in-house at the Kennedy Institute of Rheumatology as previously described (Miller, E. J. et al. (1972)). Collagen was administered in complete Freund's adjuvant (Difco, Detroit, Michigan). Onset of arthritis was variable, occurring from Day 14 up to Day 40 after immunization. Arthritis onset was considered to occur on the day that swelling and/or erythema were observed. Clinical score is a composite of disease severity and the number of limbs affected, and was monitored daily from onset of disease and used as an assessment of disease progress. The scoring used was: 0, Normal; 1, slight swelling with erythema; 2, pronounced swelling; 3, joint rigidity. In addition, the extent of paw swelling reflects the degree of edema in affected limbs. Arthritis increased progressively over 10 days as reflected by both clinical score and paw swelling.
Anti-TNF antibody was used in these experiments was as described by Marinova-Mutafchieva, L. et al. (2000). NB1011 was administered daily by intraperitoneal administration at 2.5 mg total dose per day. Anti-TNF antibody was compared with NB1011 because, at present, antiTNF antibody is the optimal single agent for treatment of collagen induced arthritis (Marinova-Mutafchieva, L. et al. (2000)).
Following immunization with collagen, mice were maintained until a significant clinical score for disease progression was achieved (between 2.5 and 3.5, see FIG. 1 and Methods). Mice were then treated with control saline injections, NB1011, or with anti-TNF antibody as a positive control. […] Paw swelling is an alternative measure of CIA disease severity.

For the substance “5-(2-Bromovinyl)-2′-deoxyuridine phenyl N-methoxy-L-alaninyl phosphoramidate [NB1011]”, under “FIG. 1, NB1011 compared with anti-TNF positive control”, the “difference between NB1011 and anti-TNF groups with regard to clinical score” value is given as “no significant difference”. In addition, the “disease suppression by clinical score” value (FIG. 1, vs saline-treated control group, p<0.05, NB1011 intraperitoneal daily, 2.5 mg total dose per day, treatment started at clinical score between 2.5 and 3.5) was “significant disease suppression”. For the same substance, the “difference between NB1011 and anti-TNF groups with regard to paw swelling” value (FIG. 2, NB1011 compared with anti-TNF positive control) is listed as “no significant difference”. In addition, the “suppression of swelling relative to anti-TNF group” value (FIG. 2, qualitative remark) is listed as “may have been less dramatic”. Moreover, for the setting “FIG. 2, vs saline-treated control group, p<0.05, NB1011 intraperitoneal daily, 2.5 mg total dose per day”, the “disease suppression by paw swelling” value is “significant disease suppression”. Moreover, where the note is “comparison with literature (Malfait 2000; Miotla 2000; Marinova-Mutafchieva 2000)”, the “activity by comparison with earlier reported work on other agents” value was “superior to anti-angiogenesis agents, an anti-CD4 immunosuppressive agent, and cannabidiol”.
